Experimental data published in BindingDB's records for doi:10.1016/j.bmcl.2014.03.015 (Jiangnan University, 2014).

Target: T1, Tyrosine-protein phosphatase non-receptor type 11 (Homo sapiens, UniProt Q06124)
T1 sequence (Q06124 whole entry): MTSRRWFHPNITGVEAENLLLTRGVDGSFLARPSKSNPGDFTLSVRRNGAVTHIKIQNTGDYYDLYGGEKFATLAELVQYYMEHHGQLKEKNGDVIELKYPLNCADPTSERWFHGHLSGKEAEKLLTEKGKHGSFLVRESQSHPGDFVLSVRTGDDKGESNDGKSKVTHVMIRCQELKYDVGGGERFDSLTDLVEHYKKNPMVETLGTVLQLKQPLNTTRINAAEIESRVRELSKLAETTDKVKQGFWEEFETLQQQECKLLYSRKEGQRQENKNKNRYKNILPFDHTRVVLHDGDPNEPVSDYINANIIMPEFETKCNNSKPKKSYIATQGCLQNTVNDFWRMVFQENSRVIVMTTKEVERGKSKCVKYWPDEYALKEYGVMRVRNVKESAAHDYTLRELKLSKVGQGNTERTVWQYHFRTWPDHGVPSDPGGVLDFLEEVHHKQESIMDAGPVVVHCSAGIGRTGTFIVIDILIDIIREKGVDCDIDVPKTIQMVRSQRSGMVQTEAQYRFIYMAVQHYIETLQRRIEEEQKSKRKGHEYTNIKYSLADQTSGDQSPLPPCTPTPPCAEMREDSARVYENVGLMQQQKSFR
Test: pNPP assay

## [O]=[V]([OH])([OH])[OH]
  IC50: 34.7 µM

## O=C(Nc1ccc(-c2ccc(NC(=O)c3ccc(F)cc3)cn2)cc1)c1ccc(F)cc1 [4-fluoro-N-(6-(4-(4-fluorobenzamido)phenyl)pyridin-3-yl)benzamide (29)]
  IC50: 19.7 µM
